Data on 23 compounds can be found in patent publication US5622962A, “5α-reductase inhibitors” (priority 1995, dated 1997).

The target of assay [1] is T1, Type I 5α-Reductase from Human Scalp (Homo sapiens, UniProt P18405).
T1 construct: Scalp punch biopsies from graft recipient sites were obtained from human hair transplant procedures; from tissue; host or cells: human scalp punch biopsies (hair transplant graft recipient sites), homogenate, 100,000×g pellet
T1 sequence (P18405 1-259): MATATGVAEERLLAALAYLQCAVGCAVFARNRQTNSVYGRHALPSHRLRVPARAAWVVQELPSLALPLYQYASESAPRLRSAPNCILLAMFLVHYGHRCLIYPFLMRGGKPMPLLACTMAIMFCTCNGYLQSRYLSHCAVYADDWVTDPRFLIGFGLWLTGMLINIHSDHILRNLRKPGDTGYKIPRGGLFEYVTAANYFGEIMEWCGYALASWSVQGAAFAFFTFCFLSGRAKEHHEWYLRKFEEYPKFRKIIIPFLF
Nature of the assay: Human Type I 5α-reductase assay (conversion of [3H]-testosterone to 5α-reduced metabolites). The class given is biochemical. The note with it: pH 7.5, 0.3 μM; 50 nM [3H]-testosterone, pH 7.5, 25°, 180 min; compared to control reaction mixtures; read-out: percent inhibition of Type I AR.

Assay [2] addresses T2, Type II 5α-Reductase from Human Prostate (Homo sapiens, UniProt P31213).
T2 construct: The same procedure as above was used for preparations using tissue from prostate surgery; from tissue; host or cells: human prostate tissue from surgery, homogenate, 100,000×g pellet
T2 sequence (P31213 1-254): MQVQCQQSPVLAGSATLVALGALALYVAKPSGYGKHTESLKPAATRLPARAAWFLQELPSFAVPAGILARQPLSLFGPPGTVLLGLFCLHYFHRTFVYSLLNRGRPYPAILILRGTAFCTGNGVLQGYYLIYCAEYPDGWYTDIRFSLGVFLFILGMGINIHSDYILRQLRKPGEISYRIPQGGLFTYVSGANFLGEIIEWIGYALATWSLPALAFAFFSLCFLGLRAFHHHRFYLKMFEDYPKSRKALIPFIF
Nature of the assay: Human Type II 5α-reductase assay (conversion of [3H]-testosterone to 5α-reduced metabolites). The note with it: sodium acetate pH 5.5, 25°, 30 min, compared to control reaction mixtures; for inhibition at 0.3 µM: pH 5.5, 0.3 μM, read-out: percent inhibition of Type II AR. The format is biochemical.

A word on the inhibition: it is the percentage by which the read-out fell short of the control. In the case of `CN1C(=O)CC[C@]2(C)c3ccc(Sc4ccccc4F)cc3CC[C@@H]12` [Example 108, (+)-(4aR)-(10bR)-4,10b-dimethyl-8-(2-fluorophenylthio)-1,2,3,4,-4a,5,6,10b-octahydrobenzo[f]quinolin-3-one], the inhibition at 0.3 µM in assay [1] came to 100%; in assay [2], 29%.
With `CN1C(=O)CC[C@]2(C)c3ccc(Sc4ncccn4)cc3CC[C@@H]12` [Example 151, (+)-(4aR)-(10bR)-4-methyl-8-(2-pyrimidinylthio)-10b-methyl-1,2,3,4,4a,5,6,10b-octahydrobenzo[f]quinolin-3-one], the values for the inhibition at 0.3 µM in assay [1] and in assay [2] were 31% and 28%, respectively.
`CN1C(=O)CC[C@]2(C)c3ccc(-c4ccc(C(F)(F)F)cn4)cc3CC[C@@H]12` [Example 259, (+)-(4aR)-(10bR)-4-methyl-8-(2-[5-trifluoromethyl]pyridinyl)-10b-methyl-1,2,3,4,4a,5,6,10b-octahydrobenzo[f]quinolin-3-one]: the inhibition at 0.3 µM in assay [1] was 31%; in assay [2], 14%.
The like results for `CN1C(=O)CC[C@]2(C)c3ccc(Sc4nc(-c5ccccc5)nc5ccccc45)cc3CC[C@@H]12` [Example 172, (+)-(4aR)-(10bR)-4-methyl-8-(2-phenyl-4-quinazolinylthio)-10b-methyl-1,2,3,4,4a,5,6,10b-octahydrobenzo[f]quinolin-3-one] were, in that order, 55% and 36%.
`CCc1cccc2sc(Sc3ccc4c(c3)CC[C@H]3N(C)C(=O)CC[C@]43C)nc12` [Example 187, (+)-(4aR)-(10bR)-4-methyl-8-(4-ethyl-2-benzothiazolylthio)-10b-methyl-1,2,3,4,4a,5,6,10b-octahydrobenzo[f]quinolin-3-one]: the values for the inhibition at 0.3 µM in assay [1] and in assay [2] were 93% and 94%, respectively.
For `C[C@]12CCC(=O)N[C@@H]1CCc1cc(Sc3cccc4ccccc34)ccc12` [Example 11, (+)-(4aR)-(10bR)-8-(1-naphthylthio)-10b-methyl-1,2,3,4,4a,5,6,10b-octahydrobenzo[f]quinolin-3-one], the inhibition at 0.3 µM in assay [1] was determined as 87%; in assay [2], 40%.
`CN1C(=O)CC[C@]2(C)c3ccc(Sc4cccc5ccccc45)cc3CC[C@@H]12` [Example 103, (+)-(4aR)-(10bR)-4,10b-dimethyl-8-(1-naphthylthio)-1,2,3,4, -4a,5,6,10b-octahydrobenzo[f]quinolin-3-one]: the inhibition at 0.3 µM in assay [1] is 81%; in assay [2] it was 58%.
For `CN1C(=O)CC[C@]2(C)c3ccc(CCCc4ccccc4)cc3CC[C@@H]12` [Example 275, (+)-(4aR)-(10bR)-4-methyl-8-(3-phenylpropyl)-10b-methyl-1,2,3,4,4a,5,6,10b-octahydrobenzo[f]quinolin-3-one], the inhibition at 0.3 µM was 75% in assay [1] and 44% in assay [2].
For `CN1C(=O)CC[C@]2(C)c3ccc(-c4ccc5c(ccn5C(=O)OC(C)(C)C)c4)cc3CC[C@@H]12` [Example 250, (+)-(4aR)-(10bR)-4-methyl-8-(1-[t-butoxycarbonyl]-5-indolyl)-10b-methyl-1,2,3,4,4a,5,6,10b-octahydrobenzo[f]quinolin-3-one], the inhibition at 0.3 µM came out at 83% in assay [1] and 1% in assay [2].
Take `Cc1cccc(Sc2ccc3c(c2)CC[C@H]2NC(=O)CC[C@]32C)c1` [Example 10, (+)-(4aR)-(10bR)-8-(3-methylphenylthio)-10b-methyl-1,2,3,4,4a,5,6,10b-octahydrobenzo[f]quinolin-3-one]: the inhibition at 0.3 µM worked out at 22% in assay [1] and 40% in assay [2].
For the compound `CN1C(=O)CC[C@]2(C)c3ccc(-c4ccc5c6c(cccc46)C(=O)N(CCN4CCOCC4)C5=O)cc3CC[C@@H]12` [Example 234, (+)-(4aR)-(10bR)-4-methyl-8-(2-(2-[1-morpholino]ethyl)-1H-benzo<de>isoquinolin-6-yl-1,3-(2H)dione)-10b-methyl-1,2,3,4,4a,5,6,10b-octahydrobenzo[f]quinolin-3-one], the figures for the inhibition at 0.3 µM in assay [1] and in assay [2] were 83% and 30%, respectively.
For `CN1C(=O)CC[C@]2(C)c3ccc(-c4cc(C(F)(F)F)nc5c(C(F)(F)F)cccc45)cc3CC[C@@H]12` [Example 203, (+)-(4aR)-(10bR)-4-methyl-8-[2,8-bis(trifluoromethyl)-4-quinolinyl]-10b-methyl-1,2,3,4,4a,5,6,10b-octahydrobenzo[f]-quinolin-3-one], the inhibition at 0.3 µM in assay [1] stood at 8%; in assay [2], 34%.
Turning to `COc1cc(-c2ccc3c(c2)CC[C@H]2N(C)C(=O)CC[C@]32C)ccc1O` [Example 36, (+)-(4aR)-(10bR)-4-methyl-8-(4-hydroxy-3-methoxyphenyl)-10b-methyl-1,2,3,4,4a,5,6,10b-octahydrobenzo[f]quinolin-3-one], the inhibition at 0.3 µM in assay [1] is 41%; in assay [2], 52%.
The like results for `CN1C(=O)CC[C@]2(C)c3ccc(-c4cccc(C(=O)NC5CCN(Cc6ccccc6)CC5)c4)cc3CC[C@@H]12` [Example 209, (+)-(4aR)-(10bR)-4-methyl-8-(3-[1-benzyl-4-piperidinylcarboxamido]phenyl)-10b-methyl-1,2,3,4,4a,5,6,10b-octahydrobenzo[f]quinolin-3-one] were, in that order, 24% and 11%.
In the case of `CN1C(=O)CC[C@]2(C)c3ccc(-c4ccc(NC(=O)C(C)(C)C)c5ccccc45)cc3CC[C@@H]12` [Example 32, (+)-(4aR)-(10bR)-4-methyl-8-(1-[4-t-butylcarbonylamino]naphthyl)-10b-methyl-1,2,3,4,4a,5,6,10b-octahydrobenzo[f]-quinolin-3-one], the inhibition at 0.3 µM turned out to be 71% in assay [1] and 18% in assay [2].
With `CN1C(=O)CC[C@]2(C)c3ccc(-c4cccc5ncccc45)cc3CC[C@@H]12` [Example 240, (+)-(4aR)-(10bR)-4-methyl-8-(5-quinolinyl)-10b-methyl-1,2,3,4,4a,5,6,10b-octahydrobenzo[f]quinolin-3-one], the inhibition at 0.3 µM came to 55% in assay [1] and 17% in assay [2].
As to `CN1C(=O)CC[C@]2(C)c3ccc(SCc4nc5ccccc5s4)cc3CC[C@@H]12` [Example 192, (+)-(4aR)-(10bR)-8-(2-benzothiazolylmethylthio)-4,10b-dimethyl-1,2,3,4,4a,5,6,10b-octahydrobenzo[f]quinoline-3-one], the inhibition at 0.3 µM in assay [1] came out at 80%; in assay [2], 33%.
Turning to `CCCN(CCC)[C@@H]1Cc2cc(-c3ccc4c(c3)CC[C@H]3N(C)C(=O)CC[C@]43C)cc3c2[C@@H](C1)CN3C(=O)c1ccccc1` [Example 225, (+)-(4aR)-(10bR)-4-methyl-8-(2aR,4S-1-benzoyl-4-dipropylamino-2,2a,3,4-tetrahydrobenz[cd]-1H-indol-7-yl)-10b-methyl-1,2,3,4,4a,5,6,10b-octahydrobenzo[f]quinolin-3-one], the inhibition at 0.3 µM in assay [1] came to 47%; in assay [2], 32%.
Turning to `CN1C(=O)CC[C@]2(C)c3ccc(-c4cc(F)ccc4F)cc3CC[C@@H]12` [Example 229, (+)-(4aR)-(10bR)-4-methyl-8-(2,5-difluorophenyl)-10b-methyl-1,2,3,4,4a,5,6,10b-octahydrobenzo[f]quinolin-3-one], the results for the inhibition at 0.3 µM in assay [1] and in assay [2] were 97% and 11%, respectively.
Turning to `CN1C(=O)CC[C@]2(C)c3ccc(Sc4ccc5cc(F)ccc5n4)cc3CC[C@@H]12` [Example 173, (+)-(4aR)-(10bR)-4-methyl-8-(6-fluoro-2-quinolinylthio)-10b-methyl-1,2,3,4,4a,5,6,10b-octahydrobenzo[f]quinolin-3-one], the inhibition at 0.3 µM was determined as 65% in assay [1] and 78% in assay [2]. Moreover, the “percent inhibition of Type II AR” value in assay [2] (0.3 μM) worked out at 77%.
As for `CN1C(=O)CC[C@]2(C)c3ccc(NC(=O)c4ccc([N+](=O)[O-])cc4)cc3CC[C@@H]12` [Example 269, (4aR)-(10bR)-4,10b-dimethyl-8-(4-nitrobenzoylamino)-1,2,3,4,4a,5,6,10b-octahydrobenzo[f]quinolin-3-one], the inhibition at 0.3 µM in assay [1] was 8%; in assay [2], 17%.
Turning to `CN1C(=O)CC[C@]2(C)c3ccc(-c4cc(C(F)(F)F)ccc4Cl)cc3CC[C@@H]12` [Example 33, (+)-(4aR)-(10bR)-4-methyl-8-(2-chloro-5-trifluoromethylphenyl)-10b-methyl-1,2,3,4,4a,5,6,10b-octahydrobenzo[f]-quinolin-3-one], the inhibition at 0.3 µM in assay [1] worked out at 55%; in assay [2], 40%.
The like results for `CN1C(=O)C=C[C@]2(C)c3ccc(-c4cccc5ccccc45)cc3CC[C@@H]12` [Example 117, (+)-(4aR)-(10bR)-4-methyl-8-(1-naphthyl)-10b-methyl-3,4,4a,5,6,10b-hexahydrobenzo[f]quinolin-3-one] were, in that order, 46% and 49%.
